# Numbers after ± are expanded uncertainties.
# Assay: mn = molality of the nth substance listed, in mol/kg
# Settings: Liquid; for viscosity: Capillary tube (Ostwald / Ubbelohde) method; for mass density: Constant-volume piezometry
smiles,measurement,setting,value
O=S(=O)([O-])[O-].[Mg+2] [magnesium sulfate] + O,viscosity,"308.15 K, 30000 kPa, m1 = 0.722",1.156 ± 0.019 mPa·s
same,viscosity,"308.15 K, 30000 kPa, m1 = 0.923",1.309 ± 0.021 mPa·s
same,viscosity,"308.15 K, 30000 kPa, m1 = 1.824",2.422 ± 0.039 mPa·s
same,viscosity,"308.15 K, 30000 kPa, m1 = 2.291",3.348 ± 0.054 mPa·s
same,viscosity,"308.15 K, 30000 kPa, m1 = 2.623",4.364 ± 0.07 mPa·s
same,mass density,"308.6 K, 101 kPa, m1 = 0.261",1024.48 ± 0.63 kg/m3
same,mass density,"310.15 K, 101 kPa, m1 = 2.224",1226.56 ± 0.75 kg/m3
same,mass density,"310.15 K, 101 kPa, m1 = 2.535",1254.38 ± 0.77 kg/m3
same,mass density,"314.98 K, 2157 kPa, m1 = 2.535",1252.7 ± 0.8 kg/m3
same,mass density,"314.98 K, 8159 kPa, m1 = 2.535",1254.5 ± 0.8 kg/m3
same,mass density,"314.98 K, 15690 kPa, m1 = 2.535",1256.7 ± 0.8 kg/m3
same,mass density,"314.98 K, 25910 kPa, m1 = 2.535",1259.9 ± 0.9 kg/m3
same,mass density,"314.98 K, 29800 kPa, m1 = 2.535",1261 ± 0.9 kg/m3
same,mass density,"323.05 K, 2197 kPa, m1 = 2.224",1221.5 ± 0.8 kg/m3
same,mass density,"323.05 K, 10120 kPa, m1 = 2.224",1224 ± 0.8 kg/m3
same,mass density,"323.05 K, 19850 kPa, m1 = 2.224",1227 ± 0.8 kg/m3
same,mass density,"323.05 K, 26300 kPa, m1 = 2.224",1229.1 ± 0.8 kg/m3
same,mass density,"323.05 K, 30500 kPa, m1 = 2.224",1230.3 ± 0.9 kg/m3
same,viscosity,"323.15 K, 100 kPa, m1 = 0.085",0.5785 ± 0.0095 mPa·s
same,viscosity,"323.15 K, 100 kPa, m1 = 0.255",0.6403 ± 0.01 mPa·s
same,viscosity,"323.15 K, 100 kPa, m1 = 0.437",0.7163 ± 0.012 mPa·s
same,viscosity,"323.15 K, 100 kPa, m1 = 0.722",0.8612 ± 0.014 mPa·s
same,viscosity,"323.15 K, 100 kPa, m1 = 0.923",0.9738 ± 0.016 mPa·s
same,viscosity,"323.15 K, 100 kPa, m1 = 1.824",1.744 ± 0.028 mPa·s
same,viscosity,"323.15 K, 100 kPa, m1 = 2.291",2.373 ± 0.038 mPa·s
same,viscosity,"323.15 K, 100 kPa, m1 = 2.623",2.997 ± 0.048 mPa·s
same,mass density,"323.15 K, 101 kPa, m1 = 0.084",998.05 ± 0.61 kg/m3
same,mass density,"323.15 K, 101 kPa, m1 = 0.261",1018.3 ± 0.63 kg/m3
same,mass density,"323.15 K, 101 kPa, m1 = 0.469",1041.45 ± 0.64 kg/m3
same,mass density,"323.15 K, 101 kPa, m1 = 0.841",1082.67 ± 0.67 kg/m3
same,viscosity,"323.15 K, 10000 kPa, m1 = 0.085",0.5809 ± 0.0095 mPa·s
same,viscosity,"323.15 K, 10000 kPa, m1 = 0.255",0.6431 ± 0.01 mPa·s
same,viscosity,"323.15 K, 10000 kPa, m1 = 0.437",0.7198 ± 0.012 mPa·s
same,viscosity,"323.15 K, 10000 kPa, m1 = 0.722",0.8651 ± 0.014 mPa·s
same,viscosity,"323.15 K, 10000 kPa, m1 = 0.923",0.9781 ± 0.016 mPa·s
same,viscosity,"323.15 K, 10000 kPa, m1 = 1.824",1.751 ± 0.028 mPa·s
same,viscosity,"323.15 K, 10000 kPa, m1 = 2.291",2.382 ± 0.038 mPa·s
same,viscosity,"323.15 K, 10000 kPa, m1 = 2.623",3.009 ± 0.048 mPa·s
same,viscosity,"323.15 K, 30000 kPa, m1 = 0.085",0.5856 ± 0.0096 mPa·s
same,viscosity,"323.15 K, 30000 kPa, m1 = 0.255",0.648 ± 0.011 mPa·s
same,viscosity,"323.15 K, 30000 kPa, m1 = 0.437",0.7256 ± 0.012 mPa·s
same,viscosity,"323.15 K, 30000 kPa, m1 = 0.722",0.8714 ± 0.014 mPa·s
same,viscosity,"323.15 K, 30000 kPa, m1 = 0.923",0.9853 ± 0.016 mPa·s
same,viscosity,"323.15 K, 30000 kPa, m1 = 1.824",1.764 ± 0.028 mPa·s
same,viscosity,"323.15 K, 30000 kPa, m1 = 2.291",2.4 ± 0.039 mPa·s
same,viscosity,"323.15 K, 30000 kPa, m1 = 2.623",3.031 ± 0.049 mPa·s
same,mass density,"324.35 K, 101 kPa, m1 = 2.224",1219.96 ± 0.75 kg/m3
same,mass density,"324.35 K, 101 kPa, m1 = 2.535",1247.46 ± 0.77 kg/m3
same,mass density,"340.25 K, 101 kPa, m1 = 2.224",1211.6 ± 0.75 kg/m3
same,mass density,"340.25 K, 101 kPa, m1 = 2.535",1238.93 ± 0.77 kg/m3
same,mass density,"348.13 K, 1549 kPa, m1 = 2.535",1235.1 ± 0.8 kg/m3
same,mass density,"348.13 K, 9807 kPa, m1 = 2.535",1237.7 ± 0.8 kg/m3
same,mass density,"348.13 K, 14220 kPa, m1 = 2.535",1238.9 ± 0.8 kg/m3
same,mass density,"348.13 K, 23810 kPa, m1 = 2.535",1241.9 ± 0.9 kg/m3
same,mass density,"348.13 K, 30020 kPa, m1 = 2.535",1243.8 ± 0.9 kg/m3
same,viscosity,"348.15 K, 100 kPa, m1 = 0.437",0.491 ± 0.0081 mPa·s
